Data published in article PMC8019157 (Antiviral research, 2021).
Like-named read-outs stand apart in the source and are kept apart here.

What was measured:
[1] = Drug dissolved in ethanol/water; type: physicochemical; details: room temperature (22 °C), HPLC
[2] = biological target: T1, SERCA1 (Oryctolagus cuniculus, UniProt P04191); experiment: SERCA1 ATPase activity; type: biochemical, rabbit
[3] = test system: C2C12 skeletal muscle myotubes; experiment: Live-cell Ca^2+ imaging; type: cell-based, Mouse
[4] = biological target: RyR1 (Oryctolagus cuniculus, UniProt P11716); experiment: Lipid bilayer single channel recordings of purified RyR1; type: biochemical, rabbit
[5] = cited from earlier work; for Cmax: read-out: plasma Cmax
[6] = biological target: rabbit skeletal muscle ryanodine receptor Ca^2+ release channel (RyR1) (Oryctolagus cuniculus, UniProt P11716); experiment: [^3H]ryanodine binding/displacement assay with SR membrane vesicles; details: for maximum percent enhancement of [^3H]ryanodine binding over control: 6.7 nM [^3H]ryanodine; for maximum percent enhancement of [^3H]ryanodine binding over control / concentrations that enhanced [^3H]ryanodine binding to RyR1: 2 hr at 37°C
[7] = biological target: T1, SERCA1; experiment: ATP-dependent ^45Ca^2+ accumulation by longitudinal SR vesicles; type: biochemical, rabbit; details: for effect on ATP-dependent Ca^2+ transport by SERCA1: 0 – 31.2 μM, 20 min at 37°C
[8] = 0 – 20 μM, 20 min at 37°C, with and without A23187
[9] = 6 μM, antiretroviral-naïve C2C12 myotubes
[10] = Atazanavir 1.56 μM cis, 3.3 μM cis Ca^2+
[11] = Atazanavir 3.12 μM cis, 3.3 μM cis Ca^2+
[12] = Atazanavir 6.78 μM cis, 3.3 μM cis Ca^2+
[13] = Atazanavir 20.00 μM cis, 3.3 μM cis Ca^2+
[14] = Atazanavir 30.00 μM cis, 3.3 μM cis Ca^2+
[15] = Atazanavir […] cis, 3.3 μM cis Ca^2+
[16] = up to five minutes after addition
[17] = Efavirenz 2.50 μM cis, 3.0 μM cis Ca^2+
[18] = Efavirenz 5.00 μM cis, 3.0 μM cis Ca^2+
[19] = Efavirenz 12.50 μM cis, 3.0 μM cis Ca^2+
[20] = Efavirenz 20.00 μM cis, 3.0 μM cis Ca^2+
[21] = Efavirenz 31.20 μM cis, 3.0 μM cis Ca^2+
[22] = Efavirenz […] cis, 3.0 μM cis Ca^2+
[23] = EFV daily dose of up to 600 mg/day
[24] = 3 μM, antiretroviral-naïve C2C12 cells
[25] = Ritonavir 2.50 μM cis, 3.0 μM cis Ca^2+
[26] = Ritonavir 5.00 μM cis, 3.0 μM cis Ca^2+
[27] = Ritonavir 12.50 μM cis, 3.0 μM cis Ca^2+
[28] = Ritonavir 20.00 μM cis, 3.0 μM cis Ca^2+
[29] = Ritonavir 31.20 μM cis, 3.0 μM cis Ca^2+
[30] = Ritonavir […] cis, 3.0 μM cis Ca^2+

Sequence of rabbit skeletal muscle ryanodine receptor Ca^2+ release channel (RyR1) (P11716 whole entry): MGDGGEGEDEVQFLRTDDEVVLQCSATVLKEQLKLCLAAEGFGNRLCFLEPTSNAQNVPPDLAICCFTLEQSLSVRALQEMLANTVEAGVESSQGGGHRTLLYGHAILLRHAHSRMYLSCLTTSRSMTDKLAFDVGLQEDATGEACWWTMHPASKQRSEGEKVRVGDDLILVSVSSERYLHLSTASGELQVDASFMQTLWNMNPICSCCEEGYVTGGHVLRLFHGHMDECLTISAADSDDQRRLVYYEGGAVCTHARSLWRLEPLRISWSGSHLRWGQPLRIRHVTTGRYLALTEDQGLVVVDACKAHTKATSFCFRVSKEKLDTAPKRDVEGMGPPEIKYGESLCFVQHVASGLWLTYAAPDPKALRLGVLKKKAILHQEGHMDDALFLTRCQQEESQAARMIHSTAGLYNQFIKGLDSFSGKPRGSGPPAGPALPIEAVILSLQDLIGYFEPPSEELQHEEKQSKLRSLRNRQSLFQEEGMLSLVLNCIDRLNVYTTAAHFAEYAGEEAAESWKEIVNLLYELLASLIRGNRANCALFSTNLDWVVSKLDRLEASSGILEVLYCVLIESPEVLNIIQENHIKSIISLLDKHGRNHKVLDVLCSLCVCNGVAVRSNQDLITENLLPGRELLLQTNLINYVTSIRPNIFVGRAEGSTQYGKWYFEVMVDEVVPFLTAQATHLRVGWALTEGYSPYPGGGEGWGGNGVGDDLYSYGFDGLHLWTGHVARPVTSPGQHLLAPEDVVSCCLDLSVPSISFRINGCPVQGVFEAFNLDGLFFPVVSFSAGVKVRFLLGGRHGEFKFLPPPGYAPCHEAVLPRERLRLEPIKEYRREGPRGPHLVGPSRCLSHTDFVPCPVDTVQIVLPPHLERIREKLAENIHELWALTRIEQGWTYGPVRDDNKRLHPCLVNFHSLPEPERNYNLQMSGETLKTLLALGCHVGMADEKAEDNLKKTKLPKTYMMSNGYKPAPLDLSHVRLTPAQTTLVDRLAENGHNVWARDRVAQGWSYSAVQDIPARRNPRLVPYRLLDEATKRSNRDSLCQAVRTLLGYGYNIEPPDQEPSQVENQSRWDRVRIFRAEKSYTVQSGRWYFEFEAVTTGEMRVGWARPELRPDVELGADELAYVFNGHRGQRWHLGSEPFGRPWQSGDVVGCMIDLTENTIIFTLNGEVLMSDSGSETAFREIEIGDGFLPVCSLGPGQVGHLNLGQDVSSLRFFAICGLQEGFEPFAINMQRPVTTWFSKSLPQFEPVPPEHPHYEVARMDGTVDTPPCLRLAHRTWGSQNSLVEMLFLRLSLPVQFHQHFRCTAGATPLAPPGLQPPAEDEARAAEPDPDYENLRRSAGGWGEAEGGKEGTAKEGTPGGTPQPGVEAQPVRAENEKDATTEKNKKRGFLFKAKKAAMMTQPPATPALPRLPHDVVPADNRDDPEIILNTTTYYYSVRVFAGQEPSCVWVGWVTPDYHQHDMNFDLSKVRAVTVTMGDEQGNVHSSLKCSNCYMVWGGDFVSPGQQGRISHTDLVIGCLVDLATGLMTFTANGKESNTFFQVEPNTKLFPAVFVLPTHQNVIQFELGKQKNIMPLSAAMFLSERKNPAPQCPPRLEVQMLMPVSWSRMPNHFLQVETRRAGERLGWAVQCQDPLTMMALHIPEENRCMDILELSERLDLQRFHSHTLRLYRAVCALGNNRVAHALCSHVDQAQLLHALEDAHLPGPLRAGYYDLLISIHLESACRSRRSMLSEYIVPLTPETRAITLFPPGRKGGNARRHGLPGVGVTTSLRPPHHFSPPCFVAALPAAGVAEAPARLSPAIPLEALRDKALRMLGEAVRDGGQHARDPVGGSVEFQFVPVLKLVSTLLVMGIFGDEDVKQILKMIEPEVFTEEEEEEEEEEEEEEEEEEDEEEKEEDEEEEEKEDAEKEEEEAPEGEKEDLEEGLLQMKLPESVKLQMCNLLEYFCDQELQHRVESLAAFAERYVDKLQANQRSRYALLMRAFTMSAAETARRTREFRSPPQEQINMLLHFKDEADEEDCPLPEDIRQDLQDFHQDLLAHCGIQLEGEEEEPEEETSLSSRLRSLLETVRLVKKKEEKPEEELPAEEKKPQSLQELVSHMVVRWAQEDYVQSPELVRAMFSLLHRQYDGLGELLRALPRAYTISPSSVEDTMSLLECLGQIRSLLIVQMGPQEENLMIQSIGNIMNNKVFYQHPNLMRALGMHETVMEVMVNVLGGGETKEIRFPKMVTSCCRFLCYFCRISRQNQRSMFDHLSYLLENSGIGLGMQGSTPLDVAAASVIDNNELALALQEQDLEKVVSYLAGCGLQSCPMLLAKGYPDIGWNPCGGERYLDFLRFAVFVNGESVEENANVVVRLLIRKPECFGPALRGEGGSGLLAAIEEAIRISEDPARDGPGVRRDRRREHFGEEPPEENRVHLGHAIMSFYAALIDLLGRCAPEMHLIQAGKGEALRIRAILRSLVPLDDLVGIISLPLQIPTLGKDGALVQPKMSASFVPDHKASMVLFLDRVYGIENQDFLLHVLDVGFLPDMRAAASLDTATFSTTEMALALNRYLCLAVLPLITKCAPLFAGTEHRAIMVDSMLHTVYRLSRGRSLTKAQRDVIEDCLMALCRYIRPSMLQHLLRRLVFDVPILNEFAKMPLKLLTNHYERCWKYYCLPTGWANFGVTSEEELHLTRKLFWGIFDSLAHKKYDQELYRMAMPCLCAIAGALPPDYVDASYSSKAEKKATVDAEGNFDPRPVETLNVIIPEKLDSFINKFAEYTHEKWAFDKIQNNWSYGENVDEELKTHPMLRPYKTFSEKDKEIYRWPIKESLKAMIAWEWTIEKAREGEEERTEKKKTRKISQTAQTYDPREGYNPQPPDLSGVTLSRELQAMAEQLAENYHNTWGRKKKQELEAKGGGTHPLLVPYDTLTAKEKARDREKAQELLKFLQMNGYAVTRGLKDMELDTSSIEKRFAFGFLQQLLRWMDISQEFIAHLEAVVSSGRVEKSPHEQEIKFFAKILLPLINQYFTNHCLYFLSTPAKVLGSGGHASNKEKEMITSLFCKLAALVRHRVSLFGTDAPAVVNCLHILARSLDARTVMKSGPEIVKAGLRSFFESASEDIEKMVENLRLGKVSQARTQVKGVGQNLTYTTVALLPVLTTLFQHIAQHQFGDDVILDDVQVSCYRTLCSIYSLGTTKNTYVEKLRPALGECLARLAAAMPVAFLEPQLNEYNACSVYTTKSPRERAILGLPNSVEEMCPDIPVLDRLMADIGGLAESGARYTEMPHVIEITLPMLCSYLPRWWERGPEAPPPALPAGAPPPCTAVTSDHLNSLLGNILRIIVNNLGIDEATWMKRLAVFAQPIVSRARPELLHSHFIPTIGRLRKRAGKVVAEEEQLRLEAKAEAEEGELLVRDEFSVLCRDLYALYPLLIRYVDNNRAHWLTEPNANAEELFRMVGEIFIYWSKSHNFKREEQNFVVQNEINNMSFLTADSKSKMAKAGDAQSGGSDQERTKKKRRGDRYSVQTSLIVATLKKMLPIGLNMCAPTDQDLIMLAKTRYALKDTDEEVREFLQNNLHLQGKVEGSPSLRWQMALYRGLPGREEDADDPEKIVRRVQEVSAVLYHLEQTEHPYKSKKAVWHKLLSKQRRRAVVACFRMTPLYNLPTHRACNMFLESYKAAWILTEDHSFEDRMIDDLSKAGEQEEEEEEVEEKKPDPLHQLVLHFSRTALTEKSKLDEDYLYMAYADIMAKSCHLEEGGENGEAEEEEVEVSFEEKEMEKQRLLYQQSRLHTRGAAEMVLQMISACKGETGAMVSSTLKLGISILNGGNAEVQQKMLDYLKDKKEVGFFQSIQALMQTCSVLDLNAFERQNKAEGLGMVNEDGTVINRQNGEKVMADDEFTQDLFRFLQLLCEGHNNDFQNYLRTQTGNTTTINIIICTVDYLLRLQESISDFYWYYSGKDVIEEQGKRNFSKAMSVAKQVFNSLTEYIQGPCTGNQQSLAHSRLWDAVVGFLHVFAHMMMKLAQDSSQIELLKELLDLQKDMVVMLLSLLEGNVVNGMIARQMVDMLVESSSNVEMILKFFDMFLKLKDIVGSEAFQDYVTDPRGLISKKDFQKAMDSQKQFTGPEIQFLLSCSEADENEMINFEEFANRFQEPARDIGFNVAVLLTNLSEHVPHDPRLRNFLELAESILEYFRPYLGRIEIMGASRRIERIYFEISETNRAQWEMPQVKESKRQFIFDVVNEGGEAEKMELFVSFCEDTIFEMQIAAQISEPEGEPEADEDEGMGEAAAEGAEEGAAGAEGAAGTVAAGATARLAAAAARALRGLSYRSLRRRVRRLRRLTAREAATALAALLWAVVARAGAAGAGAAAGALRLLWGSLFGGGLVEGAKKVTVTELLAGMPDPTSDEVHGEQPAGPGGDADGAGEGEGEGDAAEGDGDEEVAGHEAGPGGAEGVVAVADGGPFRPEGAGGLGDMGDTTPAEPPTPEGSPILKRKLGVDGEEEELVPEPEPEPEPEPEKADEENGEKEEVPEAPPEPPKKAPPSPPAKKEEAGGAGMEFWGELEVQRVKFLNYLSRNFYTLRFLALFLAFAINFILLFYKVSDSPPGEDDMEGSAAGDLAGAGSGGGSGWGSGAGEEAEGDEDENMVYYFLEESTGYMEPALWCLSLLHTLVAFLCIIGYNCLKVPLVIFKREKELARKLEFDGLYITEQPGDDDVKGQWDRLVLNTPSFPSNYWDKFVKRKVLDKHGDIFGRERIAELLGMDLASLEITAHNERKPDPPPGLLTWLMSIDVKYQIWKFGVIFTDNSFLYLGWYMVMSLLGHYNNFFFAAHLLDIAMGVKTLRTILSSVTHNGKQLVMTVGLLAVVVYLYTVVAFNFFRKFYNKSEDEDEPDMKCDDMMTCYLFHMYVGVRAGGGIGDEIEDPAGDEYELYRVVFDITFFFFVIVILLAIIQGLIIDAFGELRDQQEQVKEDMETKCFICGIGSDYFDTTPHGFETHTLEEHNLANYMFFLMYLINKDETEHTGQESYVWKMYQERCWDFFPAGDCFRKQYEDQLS
Sequence of RyR1 (P11716 whole entry): as above

## COC(=O)N[C@H](C(=O)N[C@@H](Cc1ccccc1)[C@@H](O)CN(Cc1ccc(-c2ccccn2)cc1)NC(=O)[C@@H](NC(=O)OC)C(C)(C)C)C(C)(C)C [ATV, atazanavir]
[1]
  fraction dissolved in ethanol/water (1:1): 12.9%
  stock concentration in ethanol/water (1:1): 3.2 mM
[2]; [8]
  effect on ATPase activity of SERCA1: biphasic
[2]; concentrations higher than 5.0 μM, with and without A23187
  effect on ATPase activity of SERCA1: decreased the ATPase activity
[2]; concentrations of 0.25 and 5.0 μM, with and without A23187
  effect on ATPase activity of SERCA1: potentiated
[3]
  Ca^2+ transient in C2C12 cells pretreated with 50 μM ryanodine for 20 min: attenuated the amplitude
[3]; 6 μM
  diameter of plasma membrane blebs, times larger than that of EFV: ~ 1.5 ×
  effect on plasma membrane of C2C12 cells: blebbing
  rate of Ca^2+ transient rise, times faster than that of EFV: 7.7 ×
  rate of decay of the Ca^2+ transient, times faster than that of EFV: 3 x
[3]; [9]
  mean peak amplitude of the Ca^2+ transient: 4.4 ± 0.1 f.u.
[3]; second dose 6 μM
  response to a second dose in previously exposed C2C12 cells: did not elicit a second Ca^2+ transient
[4]; 1.6 μM cis ATV, within 15 sec, 3.3 μM cis Ca^2+
  increase in Po of RyR1: 40%
[4]; 3.2 μM cis ATV
  effect on conductance of RyR1: did not alter the conductance
[4]; 6.8 μM cis ATV
  Po of RyR1: 0.92 ± 0.10
  conductance of reduced conductance state R’1: 532 ± 34 pS
  current amplitude of RyR1 (reduced conductance state R’1): 74 % of maximum
[4]; 6.8 μM cis ATV, ± 30 mV holding potential
  dwell time in the opened state: > 25 ms
[4]; 20.0 μM and 30.0 μM cis ATV
  current amplitude of RyR1 (R’1): 74 % of maximum
[4]; [10]
  Closed- maximally opened transitions (Hz): 789 ± 25 Hz
  Dwell time closed state: 1.97 ± 0.03 ms
  Dwell time open state: 0.66 ± 0.02 ms
  Po (+30 mV): 0.14 ± 0.01
[4]; [11]
  Closed- maximally opened transitions (Hz): 1102 ±22 Hz
  Dwell time closed state: 0.62 ± 0.03 ms
  Dwell time open state: 2.83 ± 0.08 ms
  Po (+30 mV): 0.56 ± 0.03
[4]; [12]
  Closed- maximally opened transitions (Hz): 206 ± 30 Hz
  Dwell time closed state: 0.55 ± 0.07 ms
  Dwell time open state: 25.12 ± 1.52 ms
  Po (+30 mV): 0.92 ± 0.10
[4]; [13]
  Closed- maximally opened transitions (Hz): 750 ± 55 Hz
  Dwell time closed state: 2.22 ± 0.15 ms
  Dwell time open state: 1.44 ± 0.05 ms
  Po (+30 mV): 0.60 ± 0.04
[4]; [14]
  Closed- maximally opened transitions (Hz): 142 ±20 Hz
  Dwell time closed state: 5.65 ± 0.06 ms
  Dwell time open state: 0.33 ± 0.01 ms
  Po (+30 mV): 0.11 ± 0.01
[4]; [15]
  Closed- maximally opened transitions (Hz): 225 ±16 Hz
  Dwell time closed state: 0.43 ± 0.05 ms
  Dwell time open state: 5.70 ± 0.20 ms
  Po (+30 mV): 0.82 ± 0.04
[4]; [16]
  effect on Po of RyR1 of concentrations lower than 1.6 μM: did not elicit changes in the Po
[5]; 300 mg/day ATV
  plasma Cmax: ~ 2.2 μg/ml
  Cmax: ~3 µM
[5]; ATV co-administered with RTV (100 mg/day)
  Cmax: ~6 µM
[6]
  EC50: 0.0149 ± 0.0014 µM
  IC50: 6.2 ± 0.8 µM
  Ki: 1.6 ± 0.2 µM
  maximum percent enhancement of [^3H]ryanodine binding over control: 40.5 ± 5.2%
  concentrations that enhanced [^3H]ryanodine binding to RyR1: 1 to 20 nM
[7]
  effect on ATP-dependent Ca^2+ transport by SERCA1: biphasic
[7]; > 5 μM
  effect on Ca^2+ accumulation via SERCA1: inhibiting
[7]; up to 5.0 μM
  effect on Ca^2+ accumulation via SERCA1: potentiating

## O=C1Nc2ccc(Cl)cc2[C@@](C#CC2CC2)(C(F)(F)F)O1 [EFV, efavirenz]
[1]
  fraction dissolved in ethanol/water (1:1): 6.3%
  stock concentration in ethanol/water (1:1): 1.8 mM
[2]; [8]
  effect on ATPase activity of SERCA1: did not show any significant effect
[3]
  Ca^2+ transient in C2C12 cells pretreated with 50 μM ryanodine for 20 min: attenuated Ca^2+ transient
[3]; 6 μM
  duration of the global Ca^2+ transient: about 90 sec
  effect on plasma membrane of C2C12 cells: blebbing
[3]; [9]
  mean peak amplitude of the Ca^2+ transient: 3.9 ± 0.3 f.u.
  rate of Ca^2+ rise: 0.14 ± 0.01 f.u./sec
  rate of Ca^2+ transient decay: 0.04 ± 0.00 f.u./sec
[3]; second dose 6 μM
  response to a second dose in previously exposed C2C12 cells: did not elicit a second Ca^2+ transient
[4]; 31.2 nM cis EFV (so in the source)
  time after which the channel went into an irreversible shut state: 90 s
[4]; 240 nM cis EFV, within 15 sec, 3.0 μM cis Ca^2+
  increase in Po of RyR1: eight-fold
[4]; 2.5 μM cis EFV
  conductance of reduced conductance state R1: 233 ± 15 pS
  reduced conductance state R1, current amplitude: 33 % of maximum
[4]; 2.5 μM cis EFV, +30 mV
  duration of R1 state: ~ 375 msec
[4]; 2.5 μM cis EFV, −30 mV
  duration of R1 state: ~ 125 msec
[4]; 5.0 μM cis EFV
  conductance of reduced conductance state R2: 479 ± 24 pS
[4]; [17]
  Closed- maximally opened transitions (Hz): 1122 ±22 Hz
  Dwell time closed state: 1.38 ± 0.08
  Dwell time open state: 0.74 ± 0.06
  Po (+30 mV): 0.22 ± 0.01
[4]; [18]
  Closed- maximally opened transitions (Hz): 1046 ±30 Hz
  Dwell time closed state: 0.56 ± 0.07
  Dwell time open state: 1.01 ± 0.01
  Po (+30 mV): 0.59 ± 0.03
[4]; [19]
  Closed- maximally opened transitions (Hz): 1005 ±16 Hz
  Dwell time closed state: 0.53 ± 0.46
  Dwell time open state: 1.03 ± 0.05
  Po (+30 mV): 0.69 ± 0.04
[4]; [20]
  Closed- maximally opened transitions (Hz): 1060 ±25 Hz
  Dwell time closed state: 0.57 ± 0.06
  Dwell time open state: 0.99 ± 0.04
  Po (+30 mV): 0.67 ± 0.04
[4]; [21]
  Closed- maximally opened transitions (Hz): 1064 ±25 Hz
  Dwell time closed state: 1.53 ± 0.02
  Dwell time open state: 0.73 ± 0.06
  Po (+30 mV): 0.38 ± 0.01
[4]; [22]
  Closed- maximally opened transitions (Hz): 1125 ±24 Hz
  Dwell time closed state: 4.91 ± 0.43
  Dwell time open state: 0.61 ± 0.07
  Po (+30 mV): 0.08 ± 0.01
[4]; up to 5 minutes after cis addition
  effect on Po of RyR1 of concentrations lower than 240 nM: no effect
[5]; [23]
  plasma Cmax: ~ 2.5 μg/ml
  Cmax: ~8 µM
[6]
  Hill slope of displacement curve: 1.6
  concentrations that enhanced [^3H]ryanodine binding to RyR1: 1 to 10 nM
[7]
  effect on ATP-dependent Ca^2+ transport by SERCA1: no effect

## CC(C)c1nc(CN(C)C(=O)N[C@H](C(=O)N[C@@H](Cc2ccccc2)C[C@H](O)[C@H](Cc2ccccc2)NC(=O)OCc2cncs2)C(C)C)cs1 [RTV, ritonavir]
[1]
  fraction dissolved in ethanol/water (1:1): 1.5%
  stock concentration in ethanol/water (1:1): 0.39 mM
[2]; 0.25 to 20 μM, presence or absence of A23187
  effect on ATPase activity of SERCA1: dose-dependently decreased
[3]
  Ca^2+ transient in C2C12 cells pretreated with 50 μM ryanodine for 20 min: attenuated the amplitude
[3]; 3 μM
  duration of the Ca^2+ transient: about 20 sec
  effect on plasma membrane of C2C12 cells: blebbing
  rate of decay of the Ca^2+ transient, times faster than that of EFV: 3 x
[3]; [24]
  mean rate of Ca^2+ rise: 0.54 ± 0.06 f.u./sec
  peak amplitude of the Ca^2+ transient: 4.3 ± 0.2 f.u
[3]; second dose 3 μM
  response to a second dose in previously exposed C2C12 cells: triggered a second Ca^2+ transient
[4]; 720 nM cis RTV, 3.0 μM cis Ca^2+
  increase in Po of RyR1: three-fold
[4]; 3.2 μM cis RTV
  Po of RyR1: 0.15 ± 0.02
  conductance of reduced conductance state R’2: 599 ± 24 pS
  current amplitude of RyR1 (R’2): 84 % of maximum
  reduction of current amplitude of RyR1: 16%
[4]; 31.2 μM cis RTV
  current amplitude of RyR1 (R’2): 84 % of maximum
[4]; 31.2 μM cis RTV, +30 mV
  Po of RyR1: 0.92 ± 0.01
[4]; [25]
  Close - maximally opened transitions (Hz): 998 ± 89 Hz
  Dwell time closed state: 1.01 ± 0.22 ms
  Dwell time open state: 0.68 ± 0.06 ms
  Po (+30 mV): 0.29 ± 0.03
[4]; [26]
  Close - maximally opened transitions (Hz): 762 ± 45 Hz
  Dwell time open state: 1.22 ± 0.15 ms
  Po (+30 mV): 0.07 ± 0.04
[4]; [27]
  Close - maximally opened transitions (Hz): 828 ± 40 Hz
  Dwell time open state: 1.64 ± 0.03 ms
  Po (+30 mV): 0.11 ± 0.03
[4]; [28]
  Close - maximally opened transitions (Hz): 848 ± 37 Hz
  Dwell time closed state: 10.57 ± 1.24 ms
  Dwell time open state: 1.01 ± 0.06 ms
  Po (+30 mV): 0.11 ± 0.02
[4]; [29]
  Close - maximally opened transitions (Hz): 880 ± 30 Hz
  Dwell time closed state: 0.72 ± 0.09 ms
  Dwell time open state: 1.13 ± 0.09 ms
  Po (+30 mV): 0.92 ± 0.01
[4]; [30]
  Close - maximally opened transitions (Hz): 773 ± 47 Hz
  Dwell time closed state: 4.25 ± 0.11 ms
  Dwell time open state: 0.35 ± 0.02 ms
  Po (+30 mV): 0.07 ± 0.01
[4]; [16]
  effect on Po of RyR1 of concentrations lower than 720 nM: did not elicit changes in the Po
[6]
  maximum percent enhancement of [^3H]ryanodine binding over control: 62.3 ± 6.2%
  concentrations that enhanced [^3H]ryanodine binding to RyR1: 1 to 60 nM
[7]
  effect on ATP-dependent Ca^2+ transport by SERCA1: dose-dependently inhibited
